From ChEMBL document CHEMBL2311451, “Discovery of a selective M₄ positive allosteric modulator based on the 3-amino-thieno[2,3-b]pyridine-2-carboxamide scaffold: development of ML253, a potent and brain penetrant compound that is active in a preclinical model of schizophrenia” (Bioorg Med Chem Lett, 2013)

Experiments:
[1] = target: T1, Muscarinic acetylcholine receptor M4 (Homo sapiens) (UniProt P08173); experiment: Positive allosteric modulation of human muscarinic M4 receptor expressed in CHO-K1 cells assessed as leftward shift in acetylcholine response treated for 144 secs prior to acetylcholine addition measured for 5 mins by Fluo-4-AM based calcium mobilization assay relative to control; assay type: functional, cell-based
T1 sequence (whole entry): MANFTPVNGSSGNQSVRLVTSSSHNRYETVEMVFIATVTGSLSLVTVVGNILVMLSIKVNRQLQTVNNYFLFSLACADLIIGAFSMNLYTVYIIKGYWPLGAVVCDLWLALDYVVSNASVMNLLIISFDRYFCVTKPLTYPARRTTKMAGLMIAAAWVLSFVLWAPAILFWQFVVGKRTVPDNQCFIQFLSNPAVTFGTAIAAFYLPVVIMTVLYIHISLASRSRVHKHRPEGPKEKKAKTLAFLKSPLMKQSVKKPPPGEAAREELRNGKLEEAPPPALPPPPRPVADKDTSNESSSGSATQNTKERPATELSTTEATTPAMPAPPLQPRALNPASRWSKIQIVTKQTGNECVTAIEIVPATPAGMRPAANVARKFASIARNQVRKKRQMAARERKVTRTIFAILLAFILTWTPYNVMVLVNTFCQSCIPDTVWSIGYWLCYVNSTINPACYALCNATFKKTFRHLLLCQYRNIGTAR

[2] = target: T2, Muscarinic acetylcholine receptor M4 (Homo sapiens, UniProt P08173); experiment: Positive allosteric modulation of human muscarinic M4 receptor expressed in CHO-K1 cells assessed as leftward shift in acetylcholine response treated for 144 secs prior to acetylcholine addition measured for 5 mins by Fluo-4-AM based calcium mobilization assay; assay type: functional, cell-based; conditions: read-out: EC50
T2 sequence (P08173 whole entry): T1 sequence (whole entry)

Structure (SMILES)	%max [1] [%]	EC50 [2] [nM]
Cc1nc2sc(C(=O)NCc3ncccn3)c(N)c2c(C)c1Cl	51	810
Cc1nc2sc(C(=O)NC3CCOC3)c(N)c2c(C)c1Cl (configuration not stated)	92.2	52
Cc1nc2sc(C(=O)NCc3ccc(F)c(F)c3)c(N)c2c(C)c1Cl	42	160
Cc1nc2sc(C(=O)NC3COC3)c(N)c2c(C)c1Cl	69.9	2010
Cc1nc2sc(C(=O)NC3CCOCC3)c(N)c2c(C)c1Cl	78.6	289
Cc1nc2sc(C(=O)NCCC3CCCN3C)c(N)c2c(C)c1Cl (configuration not stated)	38	926
CCOc1ccc(NC(=O)c2sc3nc(C)c(Cl)c(C)c3c2N)cc1	–	> 30000
COc1ccc(NC(=O)c2sc3nc(C)c(Cl)c(C)c3c2N)cc1	30.7	> 10000
Cc1nc2sc(C(=O)NCc3ccc(Cl)cc3)c(N)c2c(C)c1Cl	33.2	180
Cc1nc2sc(C(=O)NCc3cnccn3)c(N)c2c(C)c1Cl	83.1	294
Cc1nc2sc(C(=O)NCCc3ccccn3)c(N)c2c(C)c1Cl	61.7	844
Cc1nc2sc(C(=O)NC(C)c3ccncc3)c(N)c2c(C)c1Cl (configuration not stated)	64.1	600
Cc1nc2sc(C(=O)NC(C)(C)C)c(N)c2c(C)c1Cl	68.3	307
Cc1nc2sc(C(=O)NC(C)C)c(N)c2c(C)c1Cl	77.3	147
Cc1nc2sc(C(=O)NCCc3ccncc3)c(N)c2c(C)c1Cl	74.5	128
COCCCNC(=O)c1sc2nc(C)c(Cl)c(C)c2c1N	85.7	418
Cc1ccc(CNC(=O)c2sc3nc(C)c(Cl)c(C)c3c2N)cc1	46.8	104
Cc1cc(CNC(=O)c2sc3nc(C)c(Cl)c(C)c3c2N)ccn1	75.8	61
Cc1nc2sc(C(=O)NCc3cccnc3)c(N)c2c(C)c1Cl	84.9	208
